From ChEMBL document CHEMBL4808243, “Harmine-inspired design and synthesis of benzo[d]imidazo[2,1-b]thiazole derivatives bearing 1,3,4-oxadiazole moiety as potential tumor suppressors” (Bioorg Med Chem, 2021) come the findings set out here.

Holding throughout (type): functional, cell-based
Experiment [1] concerns NCI-H2228. As to the kind of experiment: Antiproliferative activity against human EML4-ALK positive H2228 cells assessed as inhibition of cell growth incubated for 72 hrs by MTT assay. The settings on record: NCI-H2228, 72 h. For orientation: Formazan colour is commonly taken as a measure of viable cells.
Experiment [2] concerns A549. Put plainly: Antiproliferative activity against human A549 cells assessed as inhibition of cell growth incubated for 72 hrs by MTT assay. The settings on record: A549, 72 h.
In experiment [3] the test system is A549. As to the kind of experiment: Induction of apoptosis in human A549 cells by flow cytometry analysis. In general terms: In flow cytometry, cells or beads pass a laser one at a time.
Experiment [4] deals with A549. As to the kind of experiment: Inhibition of epithelial-mesenchymal transition in human A549 cells assessed as suppression of Twist 1 expression measured after 24 hrs by Western blot analysis. The settings on record: dose 0.5-2 µM.
In experiment [5] the test system is A549. As to the kind of experiment: Inhibition of epithelial-mesenchymal transition in human A549 cells assessed as suppression of Twist 1 expression at 17 uM measured after 24 hrs by Western blot analysis. (In general: A western blot detects proteins with antibodies after separation by electrophoresis.)

By IC50 is commonly meant the concentration that inhibits the measured activity by half.

Active and inactive are the calls of the source. The rule behind the calls is not given here.

`Cc1nc2sc3ccccc3n2c1-c1nnc(CN2CCCC2)o1`: the half-maximal inhibitory concentration (IC50) came out at 26.5 µM in experiment [1] and 7.7 µM in experiment [2].

Take `Cc1nc2sc3ccccc3n2c1-c1nnc(CCN(C)C)o1`: the 50% inhibitory concentration (IC50) in experiment [1] amounted to 19 µM; in experiment [2], 11.9 µM.

For `Cc1nc2sc3ccccc3n2c1-c1nnc(CCN2CCCCC2)o1`, the IC50 in experiment [1] stood at 9.8 µM; in experiment [2], 2.03 µM. Besides, the result in experiment [3] was inactive. Besides, the Activity result in experiment [4] was “Dose-Dependent Effect”.

Take `Cc1nc2sc3ccccc3n2c1-c1nnc(CN2CCC(C)CC2)o1`: the half-inhibitory concentration (IC50) in experiment [1] worked out at 23.1 µM; in experiment [2], 12.8 µM.

Take `Cc1nc2sc3ccccc3n2c1-c1nnc(CCNCCO)o1`: the IC50 in experiment [1] was 16.5 µM; in experiment [2], 10.7 µM.

For the compound `Cc1nc2sc3ccccc3n2c1-c1nnc(CCNC2CCCC2)o1`, the IC50 in experiment [1] amounted to 18.6 µM; in experiment [2], 15 µM.

As to `COc1ccc2c(c1)[nH]c1c(C)nccc12` [HARMINE], the concentration for half-maximal inhibition (IC50) amounted to 31.1 µM in experiment [1] and 17.1 µM in experiment [2]. The outcome in experiment [5] was Active.

Turning to `Cc1nc2sc3ccccc3n2c1-c1nnc(CN2CCN(CCO)CC2)o1`, the results for the IC50 in experiment [1] and in experiment [2] were 14.9 µM and 4.41 µM, respectively.

As for `CCN(CC)CCc1nnc(-c2c(C)nc3sc4ccccc4n23)o1`, the IC50 stood at 23.9 µM in experiment [1] and 9.55 µM in experiment [2].

Take `Cc1nc2sc3ccccc3n2c1-c1nnc(CNC2CCCC2)o1`: the concentration for half-maximal inhibition (IC50) in experiment [1] came out at 17.4 µM; in experiment [2], 3.92 µM.

`Cc1nc2sc3ccccc3n2c1-c1nnc(CN2CCCCC2)o1`: the half-inhibitory concentration (IC50) in experiment [1] stood at 19.2 µM; in experiment [2] it was 15.1 µM.

Regarding `Cc1nc2sc3ccccc3n2c1-c1nnc(CN(C)C)o1`, the IC50 in experiment [1] was determined as 15.3 µM; in experiment [2] it was 9.26 µM.

Turning to `Cc1nc2sc3ccccc3n2c1-c1nnc(CCN2CCCC2)o1`, the values for the IC50 in experiment [1] and in experiment [2] were 23.5 µM and 12.2 µM, respectively.

`Cc1nc2sc3ccccc3n2c1-c1nnc(CNCCO)o1`: the IC50 came out at 17.8 µM in experiment [1] and 8.46 µM in experiment [2].

`Cc1nc2sc3ccccc3n2c1-c1nnc(CN2CC(O)C2)o1`: the IC50 in experiment [1] is 27.2 µM; in experiment [2], 12.3 µM.

As to `CCCN1CCN(CCc2nnc(-c3c(C)nc4sc5ccccc5n34)o2)CC1`, the values for the IC50 in experiment [1] and in experiment [2] were 22.2 µM and 11.1 µM, respectively.

As for `Cc1nc2sc3ccccc3n2c1-c1nnc(CN2CCC(O)CC2)o1`, the IC50 in experiment [1] is 12.2 µM; in experiment [2] it was 15 µM.

In the case of `Cc1nc2sc3ccccc3n2c1-c1nnc(CCN2CCC(C)CC2)o1`, the values for the IC50 in experiment [1] and in experiment [2] were 13.4 µM and 2.38 µM, respectively.

With `Cc1nc2sc3ccccc3n2c1-c1nnc(CCN2CC(O)C2)o1`, the results for the IC50 in experiment [1] and in experiment [2] were 22.5 µM and 9.63 µM, respectively.

With `CCN(CC)Cc1nnc(-c2c(C)nc3sc4ccccc4n23)o1`, the IC50 was determined as 21.6 µM in experiment [1] and 10.7 µM in experiment [2].

As to `Cc1nc2sc3ccccc3n2c1-c1nnc(CCN2CCN(CCO)CC2)o1`, the half-inhibitory concentration (IC50) is 14 µM in experiment [1] and 6.95 µM in experiment [2].

Consider `CCCN1CCN(Cc2nnc(-c3c(C)nc4sc5ccccc5n34)o2)CC1`, for which the IC50 in experiment [1] was 21.8 µM; in experiment [2], 13.7 µM.

For the compound `Cc1nc2sc3ccccc3n2c1-c1nnc(CCN2CCC(O)CC2)o1`, the half-maximal inhibitory concentration (IC50) in experiment [1] worked out at 15.4 µM; in experiment [2], 7.66 µM.
